# Reference: PubChem BioAssay AID256 (DTP/NCI, 2004)
# “And” between values parts separate entries of the source, which are not always exact repeats. Equal entries are not always repeated. Inconclusive results and toxic doses are left out.
# System: CD2F1 mice, L1210 leukemia ip, survival T/C
# Assay: NCI In Vivo Anticancer Drug Screen. Data for tumor model L1210 Leukemia (intraperitoneal) in CD2F1 (CDF1) mice
# Details: higher = longer survival
# Summary of the method: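 Implant tumor; dose compound or vehicle; measure endpoint in both groups; report treated divided by control.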
# [1] = endpoint: mean survival time, dose: 5.0 mg/kg/injection, schedule: Q04DX003 (ip), vehicle: saline with Tween-80
# [2] = endpoint: mean survival time, dose: 10.0 mg/kg/injection, schedule: Q04DX003 (ip), vehicle: saline with Tween-80
# [3] = endpoint: mean survival time, dose: 20.0 mg/kg/injection, schedule: Q04DX003 (ip), vehicle: saline with Tween-80
# [4] = endpoint: mean survival time, dose: 6.25 mg/kg/injection, schedule: Q01DX009 (ip), vehicle: saline with Tween-80
# [5] = endpoint: mean survival time, dose: 25.0 mg/kg/injection, schedule: Q01DX009 (ip), vehicle: saline with Tween-80
# [6] = endpoint: mean survival time, dose: 100.0 mg/kg/injection, schedule: Q01DX009 (ip), vehicle: saline with Tween-80
# [7] = endpoint: mean survival time, dose: 100.0 mg/kg/injection, schedule: Q04DX003 (ip), vehicle: saline with Tween-80
# [8] = endpoint: mean survival time, dose: 200.0 mg/kg/injection, schedule: Q01DX009 (ip), vehicle: saline with Tween-80
# [9] = endpoint: mean survival time, dose: 200.0 mg/kg/injection, schedule: Q04DX003 (ip), vehicle: saline with Tween-80
# [10] = endpoint: mean survival time, dose: 400.0 mg/kg/injection, schedule: Q01DX009 (ip), vehicle: saline with Tween-80
# [11] = endpoint: mean survival time, dose: 400.0 mg/kg/injection, schedule: Q04DX003 (ip), vehicle: saline with Tween-80
# [12] = endpoint: mean survival time, dose: 100.0 mg/kg/injection, schedule: Q01DX001 (ip), vehicle: saline with Tween-80
# [13] = endpoint: mean survival time, dose: 50.0 mg/kg/injection, schedule: Q01DX009 (ip), vehicle: Klucel (hydroxypropylcellulose) (HPC)
# [14] = endpoint: mean survival time, dose: 50.0 mg/kg/injection, schedule: Q01DX009 (ip), vehicle: saline with Tween-80
# [15] = endpoint: mean survival time, dose: 25.0 mg/kg/injection, schedule: Q04DX003 (ip), vehicle: saline with Tween-80
structure (smiles),measurement,setting,value
O=C1CCC2(C=C(Br)C(=O)C(Br)=C2)O1,T/C,"endpoint: mean survival time, dose: 5.0 mg/kg/injection, schedule: Q01DX009 (ip), vehicle: saline with Tween-80",98 % of control
same,T/C,[1],103 % of control
same,T/C,[2],105 % of control
same,T/C,[3],101 % of control
c1ccc2c(c1)nnn1c3cnccc3nc21,T/C,"endpoint: mean survival time, dose: 1.56 mg/kg/injection, schedule: Q01DX009 (ip), vehicle: saline with Tween-80",101 % of control and 105 % of control
same,T/C,"endpoint: mean survival time, dose: 3.12 mg/kg/injection, schedule: Q01DX009 (ip), vehicle: saline with Tween-80",94 % of control and 100 % of control
same,T/C,"endpoint: mean survival time, dose: 5.0 mg/kg/injection, schedule: Q01DX001 (ip), vehicle: saline",98 % of control
same,T/C,[4],97 % of control and 103 % of control
same,T/C,"endpoint: mean survival time, dose: 10.0 mg/kg/injection, schedule: Q01DX001 (ip), vehicle: saline",101 % of control
same,T/C,"endpoint: mean survival time, dose: 12.5 mg/kg/injection, schedule: Q01DX009 (ip), vehicle: saline with Tween-80",101 % of control
same,T/C,"endpoint: mean survival time, dose: 20.0 mg/kg/injection, schedule: Q01DX001 (ip), vehicle: saline",98 % of control
same,T/C,[5],103 % of control
Cc1ccc(S(=O)(=O)N(C)N=O)cc1,T/C,[6],89 % of control
same,T/C,[7],97 % of control
same,T/C,[8],106 % of control
same,T/C,[9],102 % of control
same,T/C,[10],102 % of control
same,T/C,[11],107 % of control
COC(=O)[CH](C[N+](=O)[O-])[Hg][Cl] (stereo not drawn),T/C,[4],97 % of control
same,T/C,"endpoint: mean survival time, dose: 12.5 mg/kg/injection, schedule: Q04DX003 (ip), vehicle: saline",94 % of control
COc1ccc(-n2cnc3c(=O)[nH]c(N)nc32)cc1,T/C,"endpoint: mean survival time, dose: 25.0 mg/kg/injection, schedule: Q01DX001 (ip), vehicle: saline with Tween-80",95 % of control
same,T/C,"endpoint: mean survival time, dose: 50.0 mg/kg/injection, schedule: Q01DX001 (ip), vehicle: saline with Tween-80",92 % of control
same,T/C,[12],95 % of control
Cc1ccc([Si](C)(C)c2ccccc2)cc1,T/C,"endpoint: mean survival time, dose: 75.0 mg/kg/injection, schedule: Q01DX001 (ip), vehicle: saline",97 % of control
same,T/C,"endpoint: mean survival time, dose: 150.0 mg/kg/injection, schedule: Q01DX001 (ip), vehicle: saline",101 % of control
CC(=O)c1c(O)c(C)c(O)c2c1OC1=CC(=O)C(C(C)=O)C(=O)C12C (stereo not drawn),T/C,"endpoint: mean survival time, dose: 25.0 mg/kg/injection, schedule: Q01DX009 (ip), vehicle: Klucel (hydroxypropylcellulose) (HPC)",93 % of control
same,T/C,[13],93 % of control
same,T/C,"endpoint: mean survival time, dose: 100.0 mg/kg/injection, schedule: Q01DX009 (ip), vehicle: Klucel (hydroxypropylcellulose) (HPC)",96 % of control
O=C(CCc1ccc(O)cc1)ON1C(=O)CCC1=O,T/C,[13],105 % of control
COc1ccc(OC)c(/C=C/c2ccnc3ccccc23)c1,T/C,"endpoint: median survival time, dose: 50.0 mg/kg/injection, schedule: Q01DX009 (ip), vehicle: saline with Tween-80",102 % of control
same,T/C,"endpoint: median survival time, dose: 100.0 mg/kg/injection, schedule: Q01DX009 (ip), vehicle: saline with Tween-80",101 % of control
same,T/C,"endpoint: median survival time, dose: 200.0 mg/kg/injection, schedule: Q01DX009 (ip), vehicle: saline with Tween-80",108 % of control
same,T/C,"endpoint: median survival time, dose: 400.0 mg/kg/injection, schedule: Q01DX009 (ip), vehicle: saline with Tween-80",113 % of control
C/C(=C/C#N)c1ccccc1,T/C,[14],101 % of control
same,T/C,[6],97 % of control
same,T/C,[7],100 % of control
same,T/C,[9],100 % of control
O=NN(CCF)C(=O)NC1C(O)CCCC1O (stereo not drawn),T/C,"endpoint: median survival time, dose: 1.25 mg/kg/injection, schedule: Q01DX001 (ip), vehicle: saline",120 % of control
same,T/C,"endpoint: median survival time, dose: 2.5 mg/kg/injection, schedule: Q01DX001 (ip), vehicle: saline",116 % of control
same,T/C,"endpoint: median survival time, dose: 5.0 mg/kg/injection, schedule: Q01DX001 (ip), vehicle: saline",160 % of control
same,T/C,"endpoint: median survival time, dose: 5.0 mg/kg/injection, schedule: Q04DX002 (ip), vehicle: saline",178 % of control
same,T/C,"endpoint: median survival time, dose: 10.0 mg/kg/injection, schedule: Q01DX001 (ip), vehicle: saline",168 % of control
same,T/C,"endpoint: median survival time, dose: 10.0 mg/kg/injection, schedule: Q04DX002 (ip), vehicle: saline",231 % of control and 232 % of control
same,T/C,"endpoint: median survival time, dose: 20.0 mg/kg/injection, schedule: Q01DX001 (ip), vehicle: saline",337 % of control
same,T/C,"endpoint: median survival time, dose: 20.0 mg/kg/injection, schedule: Q04DX002 (ip), vehicle: saline",361 % of control and 365 % of control
same,T/C,"endpoint: median survival time, dose: 40.0 mg/kg/injection, schedule: Q01DX001 (ip), vehicle: saline",337 % of control
same,T/C,"endpoint: median survival time, dose: 40.0 mg/kg/injection, schedule: Q04DX002 (ip), vehicle: saline",182 % of control and 361 % of control
CC(O)C(NC(=O)c1cnc(=O)[nH]c1N)C(=O)O (stereo not drawn),T/C,[5],105 % of control
same,T/C,[14],102 % of control
same,T/C,[6],102 % of control
CCC(C(=O)O)C(=O)O.[NH-]CC[NH-].[Pt+2],T/C,[15],101 % of control
same,T/C,"endpoint: mean survival time, dose: 50.0 mg/kg/injection, schedule: Q04DX003 (ip), vehicle: saline with Tween-80",104 % of control
same,T/C,[7],112 % of control
O=C(O)c1sc(C(=O)O)c(-c2ccccc2)c1-c1ccccc1,T/C,"endpoint: mean survival time, dose: 100.0 mg/kg/injection, schedule: Q01DX009 (ip), vehicle: saline sonified",92 % of control
same,T/C,"endpoint: mean survival time, dose: 200.0 mg/kg/injection, schedule: Q01DX009 (ip), vehicle: saline sonified",90 % of control
same,T/C,"endpoint: mean survival time, dose: 400.0 mg/kg/injection, schedule: Q01DX009 (ip), vehicle: saline sonified",103 % of control
Clc1ccc(C[P+](c2ccccc2)(c2ccccc2)c2ccccc2)c(Cl)c1,T/C,"endpoint: mean survival time, dose: 5.0 mg/kg/injection, schedule: Q01DX009 (ip), vehicle: saline sonified",103 % of control
same,T/C,[1],92 % of control
same,T/C,[2],96 % of control
same,T/C,"endpoint: mean survival time, dose: 12.5 mg/kg/injection, schedule: Q04DX003 (ip), vehicle: saline with Tween-80",100 % of control
same,T/C,[3],108 % of control
same,T/C,[15],93 % of control
COc1ccc(/C=C(/C#N)c2ccccc2)cc1,T/C,[7],95 % of control
same,T/C,[9],93 % of control
same,T/C,[11],90 % of control
CO/N=C(\N)c1ncn(C2OC3COP(=O)(O)OC3C2O)c1N (stereo not drawn),T/C,"endpoint: median survival time, dose: 49.8 mg/kg/injection, schedule: Q01DX005 (ip), vehicle: saline",98 % of control
same,T/C,"endpoint: median survival time, dose: 99.5 mg/kg/injection, schedule: Q01DX005 (ip), vehicle: saline",100 % of control
same,T/C,"endpoint: median survival time, dose: 199.1 mg/kg/injection, schedule: Q01DX005 (ip), vehicle: saline",96 % of control
NC(CSC(c1ccccc1)(c1ccccc1)c1ccccc1)C(=O)O (stereo not drawn) (tested in a mixture with another compound),T/C,"endpoint: mean survival time, dose: 5.5 mg/kg/injection, schedule: Q04DX003 (ip), vehicle: water",105 % of control
same,T/C,"endpoint: mean survival time, dose: 8.3 mg/kg/injection, schedule: Q04DX003 (ip), vehicle: water",102 % of control
same,T/C,"endpoint: mean survival time, dose: 12.4 mg/kg/injection, schedule: Q04DX003 (ip), vehicle: water",102 % of control
same,T/C,"endpoint: mean survival time, dose: 18.6 mg/kg/injection, schedule: Q04DX003 (ip), vehicle: water",108 % of control
same,T/C,"endpoint: mean survival time, dose: 28.0 mg/kg/injection, schedule: Q04DX003 (ip), vehicle: water",103 % of control
same,T/C,"endpoint: mean survival time, dose: 42.0 mg/kg/injection, schedule: Q04DX003 (ip), vehicle: water",103 % of control
same,T/C,"endpoint: mean survival time, dose: 63.0 mg/kg/injection, schedule: Q04DX003 (ip), vehicle: water",90 % of control
CCC1(O)C(=O)OCc2c1cc1n(c2=O)Cc2cc3ccc(N(C)C)cc3nc2-1 (stereo not drawn),T/C,"endpoint: median survival time, dose: 10.0 mg/kg/injection, schedule: Q04DX002 (ip), vehicle: saline with Tween-80",103 % of control
same,T/C,"endpoint: median survival time, dose: 20.0 mg/kg/injection, schedule: Q04DX002 (ip), vehicle: saline with Tween-80",106 % of control
same,T/C,"endpoint: median survival time, dose: 40.0 mg/kg/injection, schedule: Q04DX002 (ip), vehicle: saline with Tween-80",106 % of control
same,T/C,"endpoint: median survival time, dose: 80.0 mg/kg/injection, schedule: Q04DX002 (ip), vehicle: saline with Tween-80",112 % of control
CCCCCCC(C/C=C\CCCCCCCC(=O)OC)OC(C)=O (stereo not drawn),T/C,[7],101 % of control
same,T/C,[9],101 % of control
same,T/C,[11],97 % of control
CN(C)C=C1C(=O)NC(=O)NC1=O,T/C,"endpoint: mean survival time, dose: 100.0 mg/kg/injection, schedule: Q01DX001 (ip), vehicle: saline",91 % of control
same,T/C,"endpoint: mean survival time, dose: 200.0 mg/kg/injection, schedule: Q01DX001 (ip), vehicle: saline",87 % of control
COc1ccc(NC(=O)CCC(=O)Oc2ccccc2)cc1,T/C,[6],94 % of control
same,T/C,[7],100 % of control
same,T/C,[8],97 % of control
same,T/C,[9],100 % of control
same,T/C,[10],94 % of control
same,T/C,[11],94 % of control
Nc1nc2c(c(=O)[nH]1)N(Cc1c[nH]c(=O)[nH]c1=O)C(CNc1ccc(C(=O)NC(CCC(=O)O)C(=O)O)cc1)CN2 (stereo not drawn),T/C,[12],101 % of control
same,T/C,"endpoint: mean survival time, dose: 200.0 mg/kg/injection, schedule: Q01DX001 (ip), vehicle: saline with Tween-80",92 % of control
same,T/C,"endpoint: mean survival time, dose: 400.0 mg/kg/injection, schedule: Q01DX001 (ip), vehicle: saline with Tween-80",101 % of control
